According to BigSolDB 2.1:

COc1cnc(Cl)nc1Cl
Settings | solubility (mole fraction)
in acetone, 297.35 K | 0.348
in acetone, 299.36 K | 0.368
in acetone, 301.17 K | 0.386
in acetone, 303.13 K | 0.403
in acetone, 304.54 K | 0.42
in acetone, 306.18 K | 0.436
in acetone, 307.53 K | 0.45
in acetone, 308.97 K | 0.466
in acetone, 310.25 K | 0.481
in acetone, 311.37 K | 0.492
in ethanol, 299.44 K | 0.0474
in ethanol, 301.27 K | 0.0527
in ethanol, 303.17 K | 0.0584
in ethanol, 305.17 K | 0.0655
in ethanol, 307.06 K | 0.0745
in ethanol, 309.05 K | 0.0855
in ethanol, 310.73 K | 0.0972
in ethanol, 312.58 K | 0.11
in ethanol, 314 K | 0.125
in ethanol, 315.47 K | 0.141
in ethanol, 316.61 K | 0.158
in ethyl acetate, 295.6 K | 0.288
in ethyl acetate, 296.53 K | 0.295
in ethyl acetate, 298.25 K | 0.311
in ethyl acetate, 300.66 K | 0.33
in ethyl acetate, 302.28 K | 0.347
in ethyl acetate, 304.15 K | 0.364
in ethyl acetate, 305.62 K | 0.382
in ethyl acetate, 307.47 K | 0.401
in ethyl acetate, 309.19 K | 0.422
in ethyl acetate, 311.16 K | 0.444
in ethyl acetate, 313.07 K | 0.468
in ethyl acetate, 314.57 K | 0.49
in ethyl acetate, 316.39 K | 0.513
in methanol, 302.37 K | 0.0598
in methanol, 303.78 K | 0.0659
in methanol, 305.44 K | 0.0734
in methanol, 306.57 K | 0.0803
in methanol, 308.12 K | 0.0893
in methanol, 309.67 K | 0.102
in methanol, 311.15 K | 0.114
in methanol, 312.43 K | 0.13
in methanol, 313.55 K | 0.146
in methanol, 314.81 K | 0.163
in methanol, 315.8 K | 0.181
in methanol, 316.95 K | 0.202
in n-heptane, 298.1 K | 0.0094
in n-heptane, 299.83 K | 0.0104
in n-heptane, 302.1 K | 0.0116
in n-heptane, 303.81 K | 0.0129
in n-heptane, 305.72 K | 0.0141
in n-heptane, 307.55 K | 0.0157
in n-heptane, 309.57 K | 0.0174
in n-heptane, 310.97 K | 0.0192
in n-heptane, 312.89 K | 0.0214
in n-heptane, 315.04 K | 0.0239
in n-heptane, 317.15 K | 0.0268
in n-heptane, 318.83 K | 0.0296
in n-heptane, 320.08 K | 0.0324
in tetrachloromethane, 298.6 K | 0.123
in tetrachloromethane, 299.42 K | 0.13
in tetrachloromethane, 300.63 K | 0.143
in tetrachloromethane, 301.97 K | 0.159
in tetrachloromethane, 303.35 K | 0.178
in tetrachloromethane, 304.82 K | 0.196
in tetrachloromethane, 305.8 K | 0.214
in tetrachloromethane, 306.87 K | 0.237
in tetrachloromethane, 308.2 K | 0.261
in tetrachloromethane, 309.57 K | 0.288
in tetrachloromethane, 310.9 K | 0.315
in tetrachloromethane, 312.15 K | 0.343
